Reference: patent US6630321B1, “Method for identifying a compound that modulates the function of the gene product of an essential gene” (priority 1999, dated 2003)
Numbered stars: 1 amine (or outer) side, 2 acyl side, 3 side chain; on linkers, the order of the positions; unused ones are H or OH. Square brackets hold non-standard residues; d marks the D form. Peptide text beside a SMILES is read from it. X1 = CC[C@@H](C)[C@@H](O[*:1])C(=O)[*:2]; NMeVal(β-OH) = CN[C@H](C(=O)O)C(C)(C)O; NMeF = CN[C@@H](Cc1ccccc1)C(=O)O; aIle = CC[C@@H](C)[C@H](N)C(=O)O; NMeV = CN[C@H](C(=O)O)C(C)C

Key:
GAL1-AUR1 strain = test: growth (optical density) hypersensitivity of GAL1-AUR1 strain after promoter switch-off, compared to wild type; format: cell-based, S. cerevisiae; settings: GAL1 promoter switched OFF (galactose to glucose), final optical density vs wt
Description: (§1) By “viable” we mean cells that have grown sufficiently so that when gene expression of an essential gene is turned off, meaningful measurements and kinetic analysis may be made. The cells are preferably allowed to grow into early stationary phase by which time a final optical density reading is taken. A reduced optical density compared to no drug or no switchoff controls is interpreted as growth inhibition.
However no reduction in growth will be observed as long as the amount of active Erg11p is high enough not to be rate limiting for growth (above the threshold, see FIG. 2) In our example the fluconazole concentration is insufficient to reduce Erg11p activity below this threshold. The situation for a GAL1-driven ERG11 gene is different however: At time 0 the gene's engineered promoter is switched from the ON state (because of the high expression of a GAL1 promoter this level is usually higher than for the native promoter) to the OFF state by changing the carbon source in the culture. From this timepoint on no new mRNA is transcribed and—after decay of the mRNA—no new Erg11 protein is being synthesized. Erg11 concentrations are now falling due to the dilution of the enzyme into new daughter cells and protein decay of Erg11p. […] This is reflected by a lower final optical density of the culture. […] Therefore the threshold-line is crossed earlier, as no new Erg11p can be synthesized. […]

GAL1-ERG11 strain = test: growth (optical density) hypersensitivity of GAL1-ERG11 strain after promoter switch-off, compared to wild type; format: cell-based, S. cerevisiae; settings: GAL1 promoter switched OFF (galactose to glucose), final optical density vs wt
Description: as §1
However no reduction in growth will be observed as long as the amount of active Erg11p is high enough not to be rate limiting for growth (above the threshold, see FIG. 2) In our example the fluconazole concentration is insufficient to reduce Erg11p activity below this threshold. The situation for a GAL1-driven ERG11 gene is different however: At time 0 the gene's engineered promoter is switched from the ON state (because of the high expression of a GAL1 promoter this level is usually higher than for the native promoter) to the OFF state by changing the carbon source in the culture. From this timepoint on no new mRNA is transcribed and—after decay of the mRNA—no new Erg11 protein is being synthesized. Erg11 concentrations are now falling due to the dilution of the enzyme into new daughter cells and protein decay of Erg11p. […] This is reflected by a lower final optical density of the culture. […] Therefore the threshold-line is crossed earlier, as no new Erg11p can be synthesized. Compared to the wild-type cell, this is seen as hypersensitivity (larger reduction in growth in the presence of an identical concentration of drug). Simplified one can explain this as a reduced amount of cell-doublings before rate-limiting conditions occur.
For target and compound evaluation the hypersensitivity has to be specific for certain drug-target combinations. Therfore the method was tested and validated with another unrelated known drug-target combination: The AUR1 gene encodes inositolphosphorylceramide (IPC) synthase, an essential enzyme of the fungal sphingolipid biosynthetic pathway (Nagiec et al, J.Biol.Chem., 1997, 272,15, 9809-9817). […]

[1] = molecular target: Erg11p, lanosterol C-14-demethylase (Saccharomyces cerevisiae, UniProt P10614); settings: cited from earlier work
[2] = molecular target: Erg1p, squalene epoxidase (Saccharomyces cerevisiae, UniProt P32476); settings: cited from earlier work
GAL1-ERG1 strain = test: growth (optical density) hypersensitivity of GAL1-ERG1 strain after promoter switch-off, compared to wild type; format: cell-based, S. cerevisiae; settings: GAL1 promoter switched OFF, FIG. 5
Description: as §1
It follows that the hypersensitive reaction towards an inhibitor of one enzyme in a pathway may be extended to inhibitors of the whole pathway. This is due to the linear arrangement of enzymes in a biochemical cascade of reactions where one enzyme provides substrate for the next. A reduced substrate supply can act synergistically with a reduced enzyme level. Thus the activity of the almost rate-limiting enzyme Erg11p (after switchoff) will be reduced further by withdrawal of its substrate normally provided by Erg1p, squalene epoxidase, another enzyme of the sterol biosynthetic pathway, through several biochemical steps. Erg1p is now inhibited by terbinafine. Any such pathway specific hypersensitivity allows the categorisation of (uncategorised) genes into the same pathway as the switched off gene. To investigate this, we examined Erg1p. […] This pathway-specific analysis tool will be extremely useful for the classification of novel inhibitors (with unknown mode of action).

[3] = molecular target: T1, inositolphosphorylceramide (IPC) synthase (AUR1) (Saccharomyces cerevisiae, UniProt P36107); settings: cited from earlier work
T1 sequence (P36107 1-401): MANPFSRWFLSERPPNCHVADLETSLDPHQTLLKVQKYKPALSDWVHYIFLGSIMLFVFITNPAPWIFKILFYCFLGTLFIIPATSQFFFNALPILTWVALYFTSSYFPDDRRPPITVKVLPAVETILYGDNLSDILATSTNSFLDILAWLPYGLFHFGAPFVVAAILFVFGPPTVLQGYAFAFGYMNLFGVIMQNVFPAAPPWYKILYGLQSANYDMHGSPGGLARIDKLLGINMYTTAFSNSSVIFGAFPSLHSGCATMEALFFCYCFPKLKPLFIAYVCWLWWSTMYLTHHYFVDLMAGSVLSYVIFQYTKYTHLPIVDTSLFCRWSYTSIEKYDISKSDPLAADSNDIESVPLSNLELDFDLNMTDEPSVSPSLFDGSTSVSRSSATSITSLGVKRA
T1 sequence (Q06346 1-221 partner): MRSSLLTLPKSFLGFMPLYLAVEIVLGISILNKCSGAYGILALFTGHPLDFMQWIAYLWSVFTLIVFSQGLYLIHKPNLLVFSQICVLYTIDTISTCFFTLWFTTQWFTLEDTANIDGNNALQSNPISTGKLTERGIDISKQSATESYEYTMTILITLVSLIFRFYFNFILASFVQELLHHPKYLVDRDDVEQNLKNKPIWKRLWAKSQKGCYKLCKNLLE

Sequence of Erg11p, lanosterol C-14-demethylase (P10614 whole entry): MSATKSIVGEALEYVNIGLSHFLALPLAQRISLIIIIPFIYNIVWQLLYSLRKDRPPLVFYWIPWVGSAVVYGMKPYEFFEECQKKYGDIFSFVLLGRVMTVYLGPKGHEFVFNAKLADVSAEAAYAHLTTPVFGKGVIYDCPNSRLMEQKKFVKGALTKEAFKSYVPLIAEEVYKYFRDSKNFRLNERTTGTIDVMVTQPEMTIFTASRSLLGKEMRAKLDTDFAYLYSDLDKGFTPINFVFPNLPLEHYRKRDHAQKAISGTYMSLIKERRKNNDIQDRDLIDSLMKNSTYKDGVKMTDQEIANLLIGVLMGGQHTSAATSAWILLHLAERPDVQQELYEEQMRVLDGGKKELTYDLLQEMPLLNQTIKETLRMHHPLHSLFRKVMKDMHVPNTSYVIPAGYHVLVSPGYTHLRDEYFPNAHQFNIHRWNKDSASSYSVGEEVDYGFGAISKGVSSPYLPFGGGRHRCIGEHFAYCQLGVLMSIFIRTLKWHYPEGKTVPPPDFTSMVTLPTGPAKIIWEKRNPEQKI
Sequence of Erg1p, squalene epoxidase (P32476 whole entry): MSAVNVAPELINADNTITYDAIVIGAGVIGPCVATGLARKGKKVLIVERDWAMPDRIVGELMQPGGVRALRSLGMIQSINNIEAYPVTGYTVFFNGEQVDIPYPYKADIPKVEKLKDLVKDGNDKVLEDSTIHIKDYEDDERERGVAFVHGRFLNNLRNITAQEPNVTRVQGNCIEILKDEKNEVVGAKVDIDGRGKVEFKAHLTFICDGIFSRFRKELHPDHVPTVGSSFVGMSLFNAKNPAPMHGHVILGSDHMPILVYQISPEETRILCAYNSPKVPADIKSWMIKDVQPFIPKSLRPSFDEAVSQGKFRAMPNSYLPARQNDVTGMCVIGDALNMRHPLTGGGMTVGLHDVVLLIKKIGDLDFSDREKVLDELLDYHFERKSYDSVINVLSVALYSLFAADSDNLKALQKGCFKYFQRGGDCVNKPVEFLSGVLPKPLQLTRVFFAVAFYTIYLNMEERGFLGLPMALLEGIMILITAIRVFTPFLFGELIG

| Structure (SMILES) | hypersensitivity (larger reduction in growth than wild type at identical drug concentration) (GAL1-AUR1 strain) | hypersensitivity (larger reduction in growth than wild type at identical drug concentration) (GAL1-ERG11 strain) | enzyme inhibition [1] | enzyme inhibition [2] | hypersensitivity (larger reduction in growth than wild type at identical drug concentration) (GAL1-ERG1 strain) | potency of enzyme inhibition [3] |
| --- | --- | --- | --- | --- | --- | --- |
| OC(Cn1cncn1)(Cn1cncn1)c1ccc(F)cc1F [fluconazole] | neither did GAL1-AUR1 show hypersensitivity | prominent hypersensitive response | inhibits Erg11p |  |  |  |
| CN(C/C=C/C#CC(C)(C)C)Cc1cccc2ccccc12 [terbinafine] |  | as hypersuscepible to terbinafine as GAL1-ERG1 | Erg11p is not | inhibited | hypersuscepible |  |
| CC[C@@H](C)[C@@H]1NC(=O)[C@@H]2CCCN2C(=O)[C@H](Cc2ccccc2)N(C)C(=O)[C@H](Cc2ccccc2)NC(=O)[C@H](C(C)C)N(C)C(=O)[C@@H]([C@H](C)CC)OC(=O)[C@H](C(C)(C)O)N(C)C(=O)[C@H](CC(C)C)NC(=O)[C@H](C(C)C)N(C)C1=O [aureobasidinA] (cyclo(F[NMeF]P[aIle][NMeV]L[NMeVal(β-OH)][X1][NMeV])) | prominent hypersensitive response | no increased sensitivity |  |  |  | sub nanomolar potency |
